24 molecules from ChEMBL document CHEMBL1909046, “DrugMatrix in vitro pharmacology data” can be followed below.

One experiment addresses Melanocortin receptor 5 (Homo sapiens, UniProt P33032). It is filed as cell membranes, HEK293, Membrane. As to conditions: hek293.
The target in experiment [1] is Beta-3 adrenergic receptor (Homo sapiens, UniProt P13945). As to the kind of experiment: DRUGMATRIX: Adrenergic beta3 radioligand binding (ligand: [125I] Cyanopindolol). It is filed as cell membranes, HEK293, Membrane. The conditions noted are these: hek293; Not Active = under 50% inhibition at 10 µM.
Sequence of Beta-3 adrenergic receptor (P13945 whole entry): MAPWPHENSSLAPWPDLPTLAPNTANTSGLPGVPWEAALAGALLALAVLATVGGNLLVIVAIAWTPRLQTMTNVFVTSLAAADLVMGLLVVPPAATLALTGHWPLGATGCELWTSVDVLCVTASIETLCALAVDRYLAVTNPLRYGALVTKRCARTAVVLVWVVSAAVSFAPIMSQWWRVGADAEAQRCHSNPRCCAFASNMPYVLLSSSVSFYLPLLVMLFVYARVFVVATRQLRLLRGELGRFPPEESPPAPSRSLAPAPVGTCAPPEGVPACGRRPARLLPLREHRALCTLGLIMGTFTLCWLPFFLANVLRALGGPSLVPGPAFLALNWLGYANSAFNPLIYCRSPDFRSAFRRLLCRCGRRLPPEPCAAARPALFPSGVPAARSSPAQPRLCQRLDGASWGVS
Experiment [2] concerns the target Tyrosine-protein kinase Lck (Homo sapiens, UniProt P06239). As to the kind of experiment: DRUGMATRIX: Protein Tyrosine Kinase, LCK enzyme inhibition (substrate: Poly(Glu:Tyr)). It is filed as cell-based, Insect cells. The conditions noted are these: insect cells; Not Active = under 50% inhibition at 10 µM.
The nature of experiment [3]: DRUGMATRIX: GABAA, Chloride Channel, TBOB radioligand binding (ligand: [3H] TBOB). It is filed as cell membranes, Rattus norvegicus, Wistar, Cerebral cortex, Membrane. As to conditions: Not Active = under 50% inhibition at 10 µM.
Experiment [4] addresses cGMP-specific 3',5'-cyclic phosphodiesterase (Homo sapiens, UniProt O76074). Nature of the experiment: DRUGMATRIX: Phosphodiesterase PDE5 enzyme inhibition (substrate: [3H]cGMP + cGMP). It is filed as tissue-based, Platelet. The conditions noted are these: platelet; Not Active = under 50% inhibition at 10 µM.
The nature of experiment [5]: DRUGMATRIX: Potassium Channel [KATP] radioligand binding (ligand: [3H] Glyburide). It is filed as cell membranes, Membrane. As to conditions: hit-t15, Not Active = under 50% inhibition at 10 µM.

Sequence of Tyrosine-protein kinase Lck (P06239 whole entry): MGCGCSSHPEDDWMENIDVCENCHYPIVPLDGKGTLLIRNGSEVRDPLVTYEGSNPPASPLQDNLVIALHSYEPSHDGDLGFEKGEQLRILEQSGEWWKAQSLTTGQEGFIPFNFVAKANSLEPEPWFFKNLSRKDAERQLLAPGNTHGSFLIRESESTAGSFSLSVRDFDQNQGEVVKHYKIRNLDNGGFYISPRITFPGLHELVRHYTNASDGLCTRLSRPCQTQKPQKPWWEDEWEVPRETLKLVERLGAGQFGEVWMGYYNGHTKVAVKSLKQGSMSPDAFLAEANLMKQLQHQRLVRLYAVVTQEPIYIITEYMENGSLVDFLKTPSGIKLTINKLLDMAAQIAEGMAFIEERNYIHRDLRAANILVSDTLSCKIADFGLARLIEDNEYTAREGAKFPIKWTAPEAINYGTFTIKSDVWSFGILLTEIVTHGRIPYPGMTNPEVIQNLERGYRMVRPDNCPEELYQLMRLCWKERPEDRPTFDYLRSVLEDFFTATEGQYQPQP
Sequence of Melanocortin receptor 5 (P33032 whole entry): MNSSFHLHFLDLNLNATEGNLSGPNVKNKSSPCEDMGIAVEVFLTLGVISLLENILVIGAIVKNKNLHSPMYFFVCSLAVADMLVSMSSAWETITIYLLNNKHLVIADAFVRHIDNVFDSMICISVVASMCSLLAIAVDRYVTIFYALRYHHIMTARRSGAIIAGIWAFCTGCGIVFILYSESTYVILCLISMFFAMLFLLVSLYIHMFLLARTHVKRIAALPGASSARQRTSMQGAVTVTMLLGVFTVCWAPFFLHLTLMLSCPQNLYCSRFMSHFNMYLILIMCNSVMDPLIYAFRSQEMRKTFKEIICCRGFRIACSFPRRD

Consider `COc1ccc(Cl)cc1C(=O)NCCc1ccc(S(=O)(=O)NC(=O)NC2CCCCC2)cc1` [GLYBURIDE], for which the IC50 result is “Not Active” at Melanocortin receptor 5; “Not Active” in experiment [1]; “Not Active” in experiment [2]; “Not Active” in experiment [3]; “Not Active” in experiment [4]; 3.8 nM in experiment [5] (read-out: IC50). Also, the figures for the Ki result in experiment [3] and in experiment [5] (read-out: Ki) were “Not Active” and 0.432 nM, respectively.

`O=C(O)CO` [GLYCOLIC ACID]: the IC50 entry (at Melanocortin receptor 5; in experiment [1]; in experiment [2]; in experiment [3]; in experiment [4]; in experiment [5]) was “Not Active” in each case. For the same molecule, the Ki result in experiment [3] and in experiment [5] was “Not Active” in each case.

As to `O=C(O)CNCP(=O)(O)O` [GLYPHOSATE], the IC50 entry (on Melanocortin receptor 5; in experiment [1]; in experiment [2]; in experiment [3]; in experiment [4]; in experiment [5]) was “Not Active” throughout. For the same molecule, the Ki entry in experiment [3] and in experiment [5] was “Not Active” each time.

For `Clc1cc(Cl)c(OCC#CI)cc1Cl` [HALOPROGIN], the IC50 entry (against Melanocortin receptor 5; in experiment [1]; in experiment [2]; in experiment [3]; in experiment [4]; in experiment [5]) was “Not Active” each time. The Ki entry in experiment [3] and in experiment [5] was “Not Active” each time.

For the molecule `COC(=O)C[C@](O)(CCC(C)(C)O)C(=O)O[C@@H]1C(OC)=C[C@]23CCCN2CCc2cc4c(cc2[C@H]13)OCO4` [HARRINGTONINE], the IC50 entry (against Melanocortin receptor 5; in experiment [1]; in experiment [2]; in experiment [3]; in experiment [4]; in experiment [5]) was “Not Active” in each case. Moreover, the Ki entry in experiment [3] and in experiment [5] was “Not Active” in each case.

Turning to `CCN(CCO)CCCC(C)Nc1ccnc2cc(Cl)ccc12` (configuration not stated) [HYDROXYCHLOROQUINE], the IC50 entry (against Melanocortin receptor 5; in experiment [1]; in experiment [2]; in experiment [3]; in experiment [4]; in experiment [5]) was “Not Active” each time. Further, the Ki result in experiment [3] and in experiment [5] was “Not Active” each time.

Consider `CC(=O)[C@]1(O)Cc2c(O)c3c(c(O)c2[C@@H](O[C@H]2C[C@H](N)[C@H](O)[C@H](C)O2)C1)C(=O)c1ccccc1C3=O` [IDARUBICIN], for which the IC50 result (on Melanocortin receptor 5; in experiment [1]; in experiment [2]; in experiment [3]; in experiment [4]; in experiment [5]) was “Not Active” throughout. In addition, the Ki entry in experiment [3] and in experiment [5] was “Not Active” each time.

With `CC(C)Cn1cnc2c(N)nc3ccccc3c21` [IMIQUIMOD], the 50% inhibitory concentration (IC50) entry (at Melanocortin receptor 5; in experiment [1]; in experiment [2]; in experiment [3]; in experiment [4]; in experiment [5]) was “Not Active” in each case. The inhibition constant Ki entry in experiment [3] and in experiment [5] was “Not Active” throughout.

As to `O=C(NCCN1CCOCC1)c1ccc(Cl)cc1` [MOCLOBEMIDE], the IC50 entry (against Melanocortin receptor 5; in experiment [1]; in experiment [2]; in experiment [3]; in experiment [4]; in experiment [5]) was “Not Active” throughout. For the same molecule, the Ki entry in experiment [3] and in experiment [5] was “Not Active” each time.

Take `C=CCN1CC[C@]23c4c5ccc(O)c4O[C@H]2/C(=N/N=C2\CC[C@@]4(O)[C@H]6Cc7ccc(O)c8c7[C@@]4(CCN6CC=C)[C@H]2O8)CC[C@@]3(O)[C@H]1C5` [NALOXONAZINE]: the IC50 entry (against Melanocortin receptor 5; in experiment [1]; in experiment [2]; in experiment [3]; in experiment [4]; in experiment [5]) was “Not Active” in each case. Also, the Ki entry in experiment [3] and in experiment [5] was “Not Active” each time.

Consider `Cc1ccnc2c1NC(=O)c1cccnc1N2C1CC1` [NEVIRAPINE], for which the IC50 result (against Melanocortin receptor 5; in experiment [1]; in experiment [2]; in experiment [3]; in experiment [4]; in experiment [5]) was “Not Active” in each case. The Ki result in experiment [3] and in experiment [5] was “Not Active” throughout.

Consider `O=C1CN(/N=C/c2ccc([N+](=O)[O-])o2)C(=O)N1` [NITROFURANTOIN], for which the 50% inhibitory concentration (IC50) entry (on Melanocortin receptor 5; in experiment [1]; in experiment [2]; in experiment [3]; in experiment [4]; in experiment [5]) was “Not Active” in each case. In addition, the Ki entry in experiment [3] and in experiment [5] was “Not Active” each time.

As for `C#C[C@]1(O)CC[C@H]2[C@@H]3CCC4=CC(=O)CC[C@@H]4[C@H]3CC[C@@]21C` [NORETHINDRONE], the IC50 result (on Melanocortin receptor 5; in experiment [1]; in experiment [2]; in experiment [3]; in experiment [4]; in experiment [5]) was “Not Active” each time. For the same molecule, the inhibition constant Ki entry in experiment [3] and in experiment [5] was “Not Active” in each case.

Take `O=C(O)CCc1nc(-c2ccccc2)c(-c2ccccc2)o1` [OXAPROZIN]: the 50% inhibitory concentration (IC50) entry (on Melanocortin receptor 5; in experiment [1]; in experiment [2]; in experiment [3]; in experiment [4]; in experiment [5]) was “Not Active” in each case. Moreover, the Ki result in experiment [3] and in experiment [5] was “Not Active” throughout.

As for `Cc1cc(C(C)(C)C)c(O)c(C)c1CC1=NCCN1` [OXYMETAZOLINE], the IC50 result (against Melanocortin receptor 5; in experiment [1]; in experiment [2]; in experiment [3]; in experiment [4]; in experiment [5]) was “Not Active” throughout. Also, the inhibitory constant (Ki) entry in experiment [3] and in experiment [5] was “Not Active” throughout.

With `NC(=O)NC(=O)Cc1ccccc1` [PHENACEMIDE], the half-maximal inhibitory concentration (IC50) entry (at Melanocortin receptor 5; in experiment [1]; in experiment [2]; in experiment [3]; in experiment [4]; in experiment [5]) was “Not Active” throughout. In addition, the Ki entry in experiment [3] and in experiment [5] was “Not Active” each time.

Regarding `O=C1c2ccccc2C(=O)C1c1ccccc1` [PHENINDIONE], the IC50 entry (against Melanocortin receptor 5; in experiment [1]; in experiment [2]; in experiment [3]; in experiment [4]; in experiment [5]) was “Not Active” each time. Besides, the Ki result in experiment [3] and in experiment [5] was “Not Active” throughout.

On to `CCC1(c2ccccc2)C(=O)NC(=O)NC1=O` [PHENOBARBITAL], for which the IC50 result (on Melanocortin receptor 5; in experiment [1]; in experiment [2]; in experiment [3]; in experiment [4]; in experiment [5]) was “Not Active” throughout. In addition, the Ki result in experiment [3] and in experiment [5] was “Not Active” each time.

Turning to `Oc1ccccc1` [PHENOL], the IC50 result (against Melanocortin receptor 5; in experiment [1]; in experiment [2]; in experiment [3]; in experiment [4]; in experiment [5]) was “Not Active” in each case. Also, the Ki result in experiment [3] and in experiment [5] was “Not Active” each time.

With `c1ccc2c(c1)Nc1ccccc1S2` [PHENOTHIAZINE], the IC50 result (against Melanocortin receptor 5; in experiment [1]; in experiment [2]; in experiment [3]; in experiment [4]; in experiment [5]) was “Not Active” throughout. Moreover, the Ki entry in experiment [3] and in experiment [5] was “Not Active” in each case.

On to `CCN1CCN(C(=O)N[C@@H](C(=O)N[C@@H]2C(=O)N3[C@@H]2SC(C)(C)[C@@H]3C(=O)O)c2ccccc2)C(=O)C1=O` [PIPERACILLIN], for which the IC50 result (at Melanocortin receptor 5; in experiment [1]; in experiment [2]; in experiment [3]; in experiment [4]; in experiment [5]) was “Not Active” each time. Besides, the Ki result in experiment [3] and in experiment [5] was “Not Active” throughout.

Regarding `COc1cc([C@@H]2c3cc4c(cc3[C@H](O)[C@H]3COC(=O)[C@H]23)OCO4)cc(OC)c1OC` [PODOFILOX], the IC50 entry (on Melanocortin receptor 5; in experiment [1]; in experiment [2]; in experiment [3]; in experiment [4]; in experiment [5]) was “Not Active” in each case. Besides, the Ki result in experiment [3] and in experiment [5] was “Not Active” in each case.

With `COc1cc(NC(C)CCCN)c2ncccc2c1` (configuration not stated) [PRIMAQUINE], the IC50 entry (at Melanocortin receptor 5; in experiment [1]; in experiment [2]; in experiment [3]; in experiment [4]; in experiment [5]) was “Not Active” in each case. For the same molecule, the Ki result in experiment [3] and in experiment [5] was “Not Active” throughout.

As to `CC(CN1c2ccccc2Sc2ccccc21)N(C)C` (configuration not stated) [PROMETHAZINE], the IC50 entry (at Melanocortin receptor 5; in experiment [1]; in experiment [2]; in experiment [3]; in experiment [4]; in experiment [5]) was “Not Active” each time. Further, the inhibition constant Ki result in experiment [3] and in experiment [5] was “Not Active” in each case.
